Laboratory results from patent publication US11339183B2, “Phosphate and phosphonate derivatives of 7-amino-5-thio-thiazolo[4,5-d]pyrimidines and their use in treating conditions associated with elevated levels of CX3CR1 and/or CX3CL1” (KANCERA AB, priority 2018, dated 2022).
Structures can show the parent of a compound that is named as a salt.

Key:
[1] = Comparative stability of solutions on long-term storage at room temperature (HPLC-MS); type: physicochemical; details: for Degradation products observed on storage in aqueous solution: HPLC-MS, storage at room temperature; for Aqueous solubility (in words): dissolving in pure water / need for co-solvents; for Stability of aqueous formulations to storage (in words): room temperature; for Compound A % area: water + 20% MeOH, 1.75 mg/mL; for Example 1 % area: aqueous solution (MilliQ water) 1.7 mg/mL
[2] = Plasma concentration (AUC of plasma Compound A) in mice after intravenous and peroral administration; type: in vivo; details: blood 0.083-24 hours; for AUC: male, CD1, mouse, plasma
Method: (§1) A peroral dosing solution of Compound A (12 mg/mL) in 30% HP-β-CD in 10 mM Na2PO4 and an intravenous dosing solution of Compound A (2.5 mg/mL) in 30% HP-β-CD in 10 mM Na2PO4 in DPBS were prepared. The intravenous dosing solution was administered to male CD1 mice (weight 28-30 g) via intravenous injection (25 mg/kg) and the peroral dosing solution was administered to male CD1 mice (weight 28-30 g) via oral gavage (120 mg/kg).
Blood was collected from the animals at time points of 0.083, 0.25, 0.5, 1, 2, 4, 6, 12 and 24 hours and analysed for blood plasma concentration, and the data generated were used to calculate the area under the curve (AUC) values shown in Table 5.
as §1, with “Compound A HCl salt (12 mg/mL)” for “Compound A (12 mg/mL)”, “Compound A HCl salt (2.5 mg/mL)” for “Compound A (2.5 mg/mL)”, “oral gavage (125 mg/kg).” for “oral gavage (120 mg/kg).”
A peroral dosing solution of Example 1 disodium salt in water (15.4 mg/mL) at a pH of 7.18 and an intravenous dosing solution of Example 1 disodium salt in water (6.4 mg/mL) at a pH of 7.11 were prepared by dissolving Example 1 diammonium salt in water and adjusting the pH with 0.1M NaOH solution. The intravenous dosing solution was administered to male CD1 mice (weight 24-25 g) via tail injection (32 mg/kg) and the peroral dosing solution was administered to male CD1 mice (weight 24-25 g) via oral gavage (154 mg/kg).

[3] = Further stability studies: aqueous solutions stored 60 days at room temperature and/or 40° C. (HPLC-MS); type: physicochemical
Method: Aqueous solutions of several of the example compounds were prepared at concentrations of 1.2 mg/mL (10 mg/mL for Example 1 (no salt)) according to the following procedures. • i) Examples 1 b, 2h and 3 (diammonium salts) were dissolved in pure water. • ii) Examples 1d (diammonium salt) and 1n (monoammonium salt) were suspended in water and Na2HPO3 was added until all of the compound was in solution. • iii) Examples 1q, 4f an 4g (no salts) were dissolved in water with added DMSO (100 μL) and (2-hydroxypropyl)-β-cyclodextrin was added until all of the compound was in solution.
The stability of the compounds to long-term storage in aqueous solution at room temperature and/or 40° C. was then assessed by analysis of the solution by HPLC-MS after 60 days.

[4] = Comparative kinetic solubility in phosphate buffer pH 7.4 (HPLC-UV); type: physicochemical; details: aqueous buffer, kinetic from dmso stock, nominal 250 μM in 50 mM phosphate buffer pH 7.4, agitated 1 hour, filtered
Method: Samples of the compound of Example 1 and (2R)-2-[(2-amino-5-{[(1S)-1-phenylethyl]sulfanyl}-[1,3] thiazolo[4,5-d]pyrimidin-7-yl)amino]-4-methylpentan-1-ol. HCl (compound A) were diluted to a nominal concentration of 250 μM in 50 mM phosphate buffer pH 7.4 then agitated for 1 hour and filtered.
Standard solutions of the two compounds at concentrations of 25 and 250 μM in 50:50 acetontrile:water were prepared.
The solutions were then analysed by reverse phase HPLC with UV-detection, and solubility was determined by the ratio of the sample peaks to the standard curve.

[5] = aqueous solution 1.2 mg/mL, 40° C., 1d, 1n with Na2HPO3, 1q, 4f, 4g with DMSO and (2-hydroxypropyl)-β-cyclodextrin
[6] = aqueous solution 1.2 mg/mL, room temperature, 1d, 1n with Na2HPO3, 1q, 4f, 4g with DMSO and (2-hydroxypropyl)-β-cyclodextrin

## CC(C)C[C@H](CO)Nc1nc(S[C@@H](C)c2ccccc2)nc2nc(N)sc12 [Compound A, (2R)-2-[(2-amino-5-{[(1S)-1-phenylethyl]thio}[1,3]thiazolo[4,5-d]pyrimidin-7-yl)amino]-4-methylpentan-1-ol]
[1]; 1.18 mg/mL in water, polyethylene glycol 24% (v/v), RT, 0 days
  Compound A remaining %: 98.5%
[1]; 1.18 mg/mL in water, polyethylene glycol 24% (v/v), RT, 3 days
  Compound A remaining %: 97.7%
[1]; 1.18 mg/mL in water, polyethylene glycol 24% (v/v), RT, 56 days
  Compound A remaining %: 28%
[1]; 1.22 mg/mL in water, polyethylene glycol 24% (v/v), RT, 0 days
  Compound A remaining %: 98.6%
[1]; 1.22 mg/mL in water, polyethylene glycol 24% (v/v), RT, 3 days
  Compound A remaining %: 98.0%
[1]; 1.22 mg/mL in water, polyethylene glycol 24% (v/v), RT, 56 days
  Compound A remaining %: 31%
[1]; 2.25 mg/mL in water, polyethylene glycol 26% (v/v), RT, 0 days
  Compound A remaining %: 98.5%
[1]; 2.25 mg/mL in water, polyethylene glycol 26% (v/v), RT, 3 days
  Compound A remaining %: 97.7%
[1]; 2.25 mg/mL in water, polyethylene glycol 26% (v/v), RT, 56 days
  Compound A remaining %: 35%
[1]; 3.2 mg/mL in water, polyethylene glycol 28% (v/v), ethanol 0, RT, 0 days
  Compound A remaining %: 98.4%
[1]; 3.2 mg/mL in water, polyethylene glycol 28% (v/v), ethanol 0, RT, 14 days
  Compound A remaining %: 88.1%
[1]; 3.2 mg/mL in water, polyethylene glycol 28% (v/v), ethanol 0, RT, 70 days
  Compound A remaining %: 60.7%
[1]; 4.0 mg/mL in water, polyethylene glycol 25% (v/v), ethanol 3% (v/v), RT, 0 days
  Compound A remaining %: 98.4%
[1]; 4.0 mg/mL in water, polyethylene glycol 25% (v/v), ethanol 3% (v/v), RT, 14 days
  Compound A remaining %: 92.3%
[1]; 4.0 mg/mL in water, polyethylene glycol 25% (v/v), ethanol 3% (v/v), RT, 70 days
  Compound A remaining %: 75.1%
[1]
  Degradation products observed on storage in aqueous solution: the debenzylated thiol and the corresponding disulfide together with phenyl ethanol and minor amounts of styrene
  Aqueous solubility (in words): not possible to dissolve
  Stability of aqueous formulations to storage (in words): unstable to storage at room temperature
[1]; RT, 0 days
  Compound A % area: 98.4% area
[1]; RT, 4 days
  Compound A % area: 96.7% area
[2]; male CD1 mice, IV, 25 mg/kg
  Plasma Compound A AUC: 45.92 µM·h
[2]; po, 120 mg/kg, PO (oral gavage), 120 mg/kg (297 mol/kg)
  AUC: 92.6 µM·h

## CC(C)C[C@H](COP(=O)(O)O)Nc1nc(SC(C)c2ccccc2F)nc2nc(N)sc12 (stereo partly drawn) [Example 1b, (2R)-2-[(2-Amino-5-{[1-(2-fluorophenyl)ethyl]sulfanyl}[1,3]thiazolo[4,5-d]pyrimidin-7-yl)amino]-4-methylpentyl dihydrogen phosphate]
[3]; [5]
  % Area by HPLC (60 days): 100 % Area
[3]; [6]
  % Area by HPLC (60 days): 100 % Area

## CC(C)C[C@H](COP(=O)(O)O)Nc1nc(S[C@@H](C)c2ccccc2)nc2nc(N)sc12 [Example 1, (2R)-2-[(2-Amino-5-{[(1S)-1-phenylethyl]sulfanyl}[1,3]thiazolo[4,5-d]pyrimidin-7-yl)amino]-4-methylpentyl dihydrogen phosphate]
[1]
  Degradation products observed on storage in aqueous solution: not observed
  Aqueous solubility (in words): improved aqueous solubility (no co-solvents required)
  Stability of aqueous formulations to storage (in words): unexpectedly pronounced stability over Compound A
[1]; RT, 0 days of storage
  Example 1 % area: 99.6 % area
[1]; RT, 4 days of storage
  Example 1 % area: 99.6 % area
[1]; RT, 13 days of storage
  Example 1 % area: 99.6 % area
[1]; RT, 20 days of storage
  Example 1 % area: 99.6 % area
[1]; RT, 40 days of storage
  Example 1 % area: 99.6 % area
[4]
  solubility at 1 h: 118 µM
[3]; Example 1 (no salt), aqueous solution 10 mg/mL, 40° C.
  % Area by HPLC (60 days): 100 % Area

## CC(C)C[C@H](COP(=O)(O)O)Nc1nc(S[C@@H](C)c2ccc(Cl)cn2)nc2[nH]c(=O)sc12 [Example 3, (2R)-2-[(5-{[(1S)-1-(5-chloropyridin-2-yl)ethyl]sulfanyl}-2-oxo-2,3-dihydro[1,3]thiazolo[4,5-d]pyrimidin-7-yl)amino]-4-methylpentyl dihydrogen phosphate]
[3]; [5]
  % Area by HPLC (60 days): 100 % Area
[3]; [6]
  % Area by HPLC (60 days): 99.6 % Area

## CC(C)C[C@H](COP(=O)(O)O)Nc1nc(SC(C)c2ccc(Cl)cn2)nc2nc(N)sc12 (stereo partly drawn) [Example 1d, (2R)-2-[(2-Amino-5-{[1-(5-chloropyridin-2-yl)ethyl]sulfanyl}[1,3]thiazolo[4,5-d]pyrimidin-7-yl)amino]-4-methylpentyl dihydrogen phosphate]
[3]; [5]
  % Area by HPLC (60 days): 99.7 % Area
[3]; [6]
  % Area by HPLC (60 days): 98.0 % Area

## CC(C)C[C@H](CO)Nc1nc(S[C@@H](C)c2ccc(Cl)cn2)nc2c1sc(=O)n2COP(=O)(O)O [Example 2h, [5-{[(1S)-1-(5-Chloropyridin-2-yl)ethyl]sulfanyl}-7-{[(1R)-1-(hydroxymethyl)-3-methylbutyl]amino}-2-oxo[1,3]thiazolo[4,5-d]pyrimidin-3(2H)-yl]methyl dihydrogen phosphate]
[3]; [5]
  % Area by HPLC (60 days): 82.2 % Area
[3]; [6]
  % Area by HPLC (60 days): 92.3 % Area

## CC(C)C[C@H](CO)Nc1nc(S[C@@H](C)c2ccccc2)nc2nc(N)sc12 [Compound A •HCl, (2R)-2-[(2-amino-5-{[(1S)-1-phenylethyl]sulfanyl}-[1,3]thiazolo[4,5-d]pyrimidin-7-yl)amino]-4-methylpentan-1-ol. HCl]
[4]
  solubility at 1 h: 5 µM
[2]; iv, 25 mg/kg
  AUC: 50.1 µM·h
[2]; po, 125 mg/kg, PO (oral gavage), 125 mg/kg (284 mol/kg)
  AUC: 170 µM·h

## CC(C)C[C@H](COP(=O)(O)OC(C)C)Nc1nc(S[C@@H](C)c2ccccc2)nc2nc(N)sc12 [Example 1n, (2R)-2-[(2-Amino-5-{[(1S)-1-phenylethyl]sulfanyl}[1,3]thiazolo[4,5-d]pyrimidin-7-yl)amino]-4-methylpentyl 1-methylethyl hydrogen phosphate]
[3]; [5]
  % Area by HPLC (60 days): 100 % Area
[3]; [6]
  % Area by HPLC (60 days): 98.2 % Area
